Here are results for 3 compounds from US20260042755A1, “GPR6 INVERSE AGONISTS” (MapLight Therapeutics, Inc., priority 2022, published 2026).

What all share (format): cell-based
For one test, the target named is T1, hERG (Homo sapiens, UniProt Q12809).
T1 construct: expressed in transfected cells; host or cells: HEK293
Description: hERG assay (whole-cell manual patch clamp, stably-transfected HEK293/hERG cells). As to conditions: tail current, test concentrations 0.1-30 μM, read-out: hERG Assay GMean IC50. As for the experimental part: Stably-transfected HEK293/hERG cells were seeded on poly-ornithine coated glass coverslip and incubated 3-24 h in 35 mm dishes before transferring to the recording chamber. The recording chamber on the stage of a Nikon inverted microscope is continuously perfused with extracellular solution (1-1.5 ml/min). Electrodes were pulled, polished and filled with intracellular solution (tip resistance ˜3-5MΩ). After establishing a tight seal (resistances 1GΩ) between pipette tip and cell membrane, a brief suction is applied to rupture the patched membrane to establish the whole-cell patch clamp configuration. Cells are voltage clamped at −80 mV. The cell was first depolarized to +40 mV for 2s to activate hERG current, and then clamped to −40 mV for 3s to record a tail current. Test articles in various concentrations controlled by a voltage command 8 pinch valve superfusion system were delivered to the proximity of the test cell to record hERG current changes under different conditions with recording done within 30 min.
Intracellular solution (in mM): 130 KCl, 1.0 MgCl2, 5.0 EGTA, 10 HEPES, 5.0 Mg-ATP; adjust pH to 7.25 with 1M KOH; osmolarity approximately at 280 mOsm. Extracellular solution (in mM): 137 NaCl, 1.8 CaCl2, 1.0 MgCl2, 4.0 KCl, 10 Glucose, 10 HEPES; adjust pH to 7.4 with 1 M NaOH; osmolarity approximately at 295 mOsm. Original compound was dissolved in 100% DMSO, then serial diluted with DMSO to respective 1000× of test concentration to make DMSO sub-stocks. The DMSO sub-stocks were diluted 1000 fold to testing solutions (0.1, 0.3, 1, 3, 10, and 30 μM) using extracellular solution. Rapid exposure to test compound was achieved by utilizing a multichannel solenoid-operated flow system. Testing compounds were sequentially applied in increasing order of concentrations after initial application of vehicle solution on EPC-10 manual patch clamping device with the following: • Amplifier: HEKA EPC-10 USB • Nikon Ti-S Inverted Microscope • MP-285/R micromanipulator system • DAD-8VCPP voltage command Pinch valve superfusion system • TMC Shock Absorption Platform • Peristaltic Pump • Sutter Puller • Vapor pressure osmometer • Temperature controller
On the technique in general: hERG is a cardiac potassium channel; its block is linked to QT prolongation.

In the next test the target is T2, GPR6 (Homo sapiens, UniProt P46095).
T2 construct: expressed in transfected cells; host or cells: CHO cells
Description: GPR6 antagonist functional cAMP assay (LANCE Ultra cAMP TR-FRET, CHO cells stably expressing GPR6). In short, it runs like this: (§1)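 We measure cAMP by TR-FRET (665 nm) in cells held in glucose-containing Krebs-Ringer buffer with BSA and a PDE inhibitor, after a 45 min, 37 °C compound incubation. IC50s derive from a four-parameter logistic fit.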
(cAMP levels reflect the balance of adenylyl cyclase and phosphodiesterase activity.)

In another test the target is T3, GPR3 (Homo sapiens, UniProt P46089).
T3 construct: expressed in transfected cells; host or cells: CHO cells
Put plainly: GPR3 antagonist functional cAMP assay (LANCE Ultra cAMP TR-FRET, CHO cells stably expressing GPR3). In short, it runs like this:
as §1

T1 sequence (Q12809 whole entry): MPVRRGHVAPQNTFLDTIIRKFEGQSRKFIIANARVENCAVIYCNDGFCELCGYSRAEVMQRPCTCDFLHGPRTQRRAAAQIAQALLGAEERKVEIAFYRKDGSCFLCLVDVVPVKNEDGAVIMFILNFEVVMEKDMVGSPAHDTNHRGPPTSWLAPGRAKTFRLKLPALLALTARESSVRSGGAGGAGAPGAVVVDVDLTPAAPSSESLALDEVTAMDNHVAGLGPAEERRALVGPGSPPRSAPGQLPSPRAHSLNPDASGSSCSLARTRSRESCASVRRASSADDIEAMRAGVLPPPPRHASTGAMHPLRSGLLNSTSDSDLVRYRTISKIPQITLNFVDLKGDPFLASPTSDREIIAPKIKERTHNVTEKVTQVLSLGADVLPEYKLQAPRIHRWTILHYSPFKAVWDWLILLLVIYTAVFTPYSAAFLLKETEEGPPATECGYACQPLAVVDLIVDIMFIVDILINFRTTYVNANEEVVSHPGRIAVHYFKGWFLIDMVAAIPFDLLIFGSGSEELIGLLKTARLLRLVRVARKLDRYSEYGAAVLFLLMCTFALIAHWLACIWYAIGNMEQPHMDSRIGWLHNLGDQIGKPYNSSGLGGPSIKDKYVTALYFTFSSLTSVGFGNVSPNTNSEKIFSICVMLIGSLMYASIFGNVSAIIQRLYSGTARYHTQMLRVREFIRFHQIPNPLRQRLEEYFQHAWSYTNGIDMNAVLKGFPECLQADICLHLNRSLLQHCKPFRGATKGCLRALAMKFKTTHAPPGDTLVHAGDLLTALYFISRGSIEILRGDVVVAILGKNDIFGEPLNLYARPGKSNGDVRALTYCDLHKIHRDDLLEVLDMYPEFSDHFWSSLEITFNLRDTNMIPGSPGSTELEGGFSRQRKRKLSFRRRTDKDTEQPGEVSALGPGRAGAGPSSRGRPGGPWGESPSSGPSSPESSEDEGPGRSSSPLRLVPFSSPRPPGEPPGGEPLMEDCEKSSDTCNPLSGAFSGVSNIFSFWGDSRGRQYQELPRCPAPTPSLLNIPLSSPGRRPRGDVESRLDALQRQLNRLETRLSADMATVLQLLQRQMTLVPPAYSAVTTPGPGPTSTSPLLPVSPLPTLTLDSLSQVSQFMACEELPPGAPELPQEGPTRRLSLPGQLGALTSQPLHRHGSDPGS
T3 sequence (P46089 whole entry, species assumed): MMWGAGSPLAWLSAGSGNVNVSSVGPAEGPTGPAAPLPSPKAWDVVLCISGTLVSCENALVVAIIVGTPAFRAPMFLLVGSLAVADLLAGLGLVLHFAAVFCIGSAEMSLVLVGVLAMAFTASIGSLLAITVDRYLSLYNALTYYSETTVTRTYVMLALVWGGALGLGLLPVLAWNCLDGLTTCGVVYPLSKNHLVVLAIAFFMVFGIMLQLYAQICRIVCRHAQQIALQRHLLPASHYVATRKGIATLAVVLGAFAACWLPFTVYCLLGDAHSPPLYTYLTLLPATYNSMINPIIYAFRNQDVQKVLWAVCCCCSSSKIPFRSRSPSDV
T2 sequence (P46095 whole entry): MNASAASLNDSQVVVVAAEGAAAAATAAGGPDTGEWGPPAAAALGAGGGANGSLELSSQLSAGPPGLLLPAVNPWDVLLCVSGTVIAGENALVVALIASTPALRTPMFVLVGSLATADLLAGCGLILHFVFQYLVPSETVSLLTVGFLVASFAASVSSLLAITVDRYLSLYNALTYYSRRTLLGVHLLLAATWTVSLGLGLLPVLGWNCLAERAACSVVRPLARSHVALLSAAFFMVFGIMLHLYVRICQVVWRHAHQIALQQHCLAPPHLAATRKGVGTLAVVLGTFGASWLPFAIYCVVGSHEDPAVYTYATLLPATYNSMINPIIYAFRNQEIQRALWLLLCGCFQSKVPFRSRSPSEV

Regarding `CC(C)(O)[C@@H](O)c1cc2nc(N3CCN(Cc4ccc(F)cc4F)CC3)c(-c3cnn(C4CC4)c3)nc2cn1` (single isomer, unassigned) [Compound 577], the half-inhibitory concentration (IC50) (commonly the midpoint of a concentration-inhibition curve) was 13.6 µM at hERG; 100 to 1000 nM at GPR6 (CHO cells stably expressing GPR6, cAMP assay); 1 to 30 µM against GPR3 (CHO cells stably expressing GPR3, cAMP assay).
Consider `CC(C)(O)C(O)c1cc2nc(-c3cnn(CF)c3)c(N3CCN(Cc4ccccc4F)CC3)nc2cn1` (single isomer, unassigned) [Compound 707], for which the half-maximal inhibitory concentration (IC50) is more than 30 µM on hERG, 100 to 1000 nM against GPR6 (procedure of Example 24) and 1 to 30 µM on GPR3 (procedure of Example 24).
In the case of `CC(C)(O)[C@](C)(O)c1cc2nc(-c3cnn(CF)c3)c(N3CCN(Cc4ccccc4F)CC3)nc2cn1` (single isomer, unassigned) [Compound 716], the IC50 at hERG is 24.3 µM; against GPR6 (procedure of Example 24), 100 to 1000 nM; against GPR3 (procedure of Example 24), 1 to 30 µM.
